Source: patent publication US4389412A, “Substituted cyclopropanecarboxylic acid esters and pesticidal compositions containing the same as active ingredient” (priority 1979, dated 1983)
Where two headings read alike, the source gives them in different places.

How the values were obtained:
[1] = system: green rice leafhoppers (Nephotettix cincticeps); test: Utility Example-6: 0.5% dust on rice seedlings, green rice leafhoppers; assay type: in vivo; conditions: 1 kg per 10 ares, 24 hours, resistant to organophosphorus and carbamate pesticides
Description: A 0.5% dust preparation of each of the cis- and trans-isomers and a 50:50 mixture of the cis- and trans-isomers of Compound (1) and of Compound (2) as prepared by the procedure described in Formulation Example-4 was applied to rice seedlings by means of a bell-jar duster at the rate of 1 kg per 10 ares. Then, 30 green rice leafhoppers (Nephotettix cincticeps) resistant to organophosphorus and carbamate pesticides were released. […] In all cases, the mortality was not less than 90%.

[2] = Acute toxicity test in rat by the oral route; assay type: in vivo; conditions: in vivo, male rat, in olive oil, after 7 days
Description: (§1) Acute toxicity test in rat by the oral route

[3] = system: rat; test: Acute toxicity test in rat by the oral route; assay type: in vivo; conditions: Table 1, rat, 10080 min
Description: as §1

[4] = system: green rice leafhoppers (Nephotettix cincticeps Uhler); test: Utility Example-4: 0.2% dust on rice seedlings, green rice leafhoppers; assay type: in vivo; conditions: 5 kg per 10 ares, 24 hours, resistant to organophosphorus and carbamate pesticides
Description: A 0.2% dust preparation of each of the cis- and trans-isomers and a 50:50 mixture of the cis- and trans-isomers of Compound (1) and of Compound (2) as prepared by the procedure described in Formulation Example-3 was applied to rice seedlings by means of a bell-jar duster at the rate of 5 kg per 10 ares. […] In all cases, the mortality was not less than 90%.

[5] = system: tobacco cutworms (Prodenia litura Fabricius); test: Mortality test with tobacco cutworms by topical application method; assay type: in vivo; conditions: 24 h
Protocol: Mortality test with tobacco cutworms (Prodenia litura Fabricius) by topical application method
Using a microsyringe, 0.5 μl of the above solution was dripped onto the thoracic adbominal region of each of 3-instar tobacco cutworm (Prodenia litura Fabricius) larvae. […] The test larvae were used in groups of 20 individuals each.

[6] = system: killifish (Orizias latipes); test: Fish toxicity test with killifish; assay type: in vivo; conditions: Table 1; 48 hrs.
Protocol: (§2) Fish toxicity test with killifish (Orizias latipes)
(§3) An acetone solution of one of the test compounds as mentioned in Table 8 was prepared by adding said test compound to 15 ml of acetone. To 10 liters of water was added a predetermined amount of the above acetone solution and the mixture was stirred thoroughly to prepare an aqueous solution containing the test compound in a predetermined concentration. This was used as a test water. After the each test water was moderately aerated, ten killifishes (Orizias latipes) with a body weight of about 0.25 g and a body length of about 2.5 cm were released into said each test water which was maintained at 25±1° C. After 48 hours, the test fish was examined for death. The TLm (median tolerance limit, ppm) was determined.

[7] = Fish toxicity test with killifish; assay type: in vivo, Orizias latipes; conditions: water, killifish, 25±1° C., read-out: TLm (48 hrs.)
Protocol: as §2, §3

[8] = system: rice stem borers (Chilo suppressalis Walker); test: Mortality test with rice stem borers by topical application method; assay type: in vivo; conditions: 24 h
Protocol: Mortality test with rice stem borers (Chilo suppressalis Walker) by topical application method
Using a microsyringe, 0.5 μl of the above solution was applied to the thoracic abdominal region of each final-instar larva of rice stem borer (Chilo suppressalis Walker). […] The test larvae were used in groups of 20 individuals each.

[9] = system: two-spotted spider mites (Tetranychus urticae Koch); test: Mortality test with two-spotted spider mites by spray application method; assay type: in vivo; conditions: 48 h, 200 ppm spray, two days, read-out: Percent decrease of population (%)
Protocol: Mortality test with two-spotted spider mites (Tetranychus urticae Koch) by spray application method
To a 5% aqueous solution of acetone was added dropwise a small amount of Tween-20 (polyethylene sorbitan monolaurate) as a surfactant. […] From 30 to 50 adult two-spotted spider mites (Tetranychus urticae Koch) were released on the leaves of kidney-bean plants in the dicotyledonous stage in a pot 9 cm in diameter, followed by a spray application of the above solution. The pot was kept in a constant-temperature chamber at 26° C. and two days later the mites were examined for deaths. The percent decrease of population was then calculated.

[10] = system: tobacco cutworm (Prodenia litura); test: Utility Example-5: spray on soy bean leaves, tobacco cutworm larvae; assay type: in vivo; conditions: 48 h; 13 ppm; 2 days
Protocol: An acetone solution of one of the test compounds as mentioned in Table 13 and Tween-20 (the same surfactant as mentioned hereinbefore) was prepared. This acetone solution was diluted with water to prepare a solution containing the test compound in a predetermined concentration. Leaves of soy bean in pots were sprayed with the above diluted solution at the rate of 20 ml/pot and, after one day, ten 3-instar larvae of tobacco cutworm (Prodenia litura) were released on the leaves. The pots were kept in a constant-temperature chamber at 25° C.

[11] = system: green rice leafhoppers (Nephotettix cincticeps Uhler); test: Utility Example-2: spray on rice plants, green rice leafhoppers; assay type: in vivo; conditions: 7 ml/pot, 24 hours
Protocol: A 30% emulsifiable concentrate of each of the cis- and trans-isomers and a 50:50 mixture of the cis- and trans-isomers of Compound (1) and Compound (2) as prepared by the procedure described in Formulation Example-1 was diluted with water to a concentration of 80 ppm as active compound. Rice plants 4 weeks after sowing in pots (each pot 6 cm in diameter, 7 seedlings) were sprayed with the above solution at the rate of 7 ml/pot and, after drying in the air, each pot was covered with a wire-mesh cage. Then, 20 female adult green rice leafhoppers (Nephotettix cincticeps Uhler) were released into the cage. The caged pots were kept in a constant-temperature chamber at 25° C. […] In all groups, the mortality values were not less than 90%.

[12] = system: houseflies (Musca domestica); test: Mortality test with houseflies by topical application method; conditions: 24 h
Protocol: Mortality test with houseflies (Musca domestica) by topical application method
Each of the compounds according to this invention and the control compounds (Table 2) was accurately weighted and a 0.1% solution of each sample in acetone was prepared. Female adult houseflies (Musca domestica) resistant to organophosphorus pesticides, were anesthetized with ether and 0.5 μl or 1.0 μl of the above solution was micropipetted onto the prothoracic dorsal region of each insect. The insects were then put in a high-walled dish together with feed and the dish was covered with a wire-mesh cover and kept at a temperature of 25° C. The test insects were used in groups of 30 individuals each. After 24 hours the insects were examined for deaths and the percent mortality was calculated.

[13] = Fish toxicity test with guppies; assay type: in vivo, Lebistes reticulatus; conditions: guppy, water, guppies, 20° C., read-out: TLm (48 hrs.)
Outline: (§4)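 Ten female guppies, 3–4 months old, held at 20 °C in water containing surfactant and test compound added in acetone solution. TLm (median tolerance limit, ppm) determined.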

[14] = system: guppies (Lebistes reticulatus); test: Fish toxicity test with guppies; assay type: in vivo; conditions: Table 1; 48 hrs.
Outline: as §4

[15] = system: small brown planthoppers (Laodelphax striatellus Fallen); test: Utility Example-3: spray on rice plants, small brown planthoppers; assay type: in vivo; conditions: 7 ml/pot, 24 hours
Protocol: A 30% emulsifiable concentrate of each of the cis- and trans-isomers and a 50:50 mixture of the cis- and trans-isomers of Compound (1) and of Compound (2) as prepared by the procedure described in Formulation Example-1 was diluted with water to a concentration of 80 ppm as active compound. Rice plants 4 weeks after sowing in pots (each pot 6 cm in diameter, 7 seedlings) were sprayed with the above diluted solution at the rate of 7 ml/pot and, after drying in the air, each pot was covered with a wire-mesh cage. Then, 30 adult small brown planthoppers (Laodelphax striatellus Fallen) were released into the cage. The pots were kept in a constant-temperature chamber at 25° C. […] In all groups, the mortality was not less than 90%.

[16] = system: green rice leafhoppers (Nephotettix cincticeps Uhler); test: Mortality test with green rice leafhoppers by topical application method; conditions: Nephotettix cincticeps, in Oryza sativa, 24 h
Protocol: Mortality test with green rice leafhoppers (Nephotettix cincticeps Uhler) by topical application method
Then, the insects were kept at 25° C. with access to rice plant seedlings. The insects were used in groups of 15 individuals each.

[17] = system: brown planthoppers (Nilaparvata lugens); test: Utility Example-7: 0.5% dust on rice seedlings, brown planthoppers; assay type: in vivo; conditions: 1 kg per 10 ares, 24 hours
Description: A 0.5% dust preparation of each of the cis- and trans-isomers and a 50:50 mixture of the cis- and trans-isomers of Compound (1) and of Compound (2) as prepared by the procedure described in Formulation Example-4 was applied to rice seedlings, on which 30 adult brown planthoppers (Nilaparvata lugens) were released, by means of a bell-jar duster at the rate of 1 kg per 10 ares. […] In all cases, the mortality was not less than 90%.

CC1(C)C(C=C(Cl)Cl)C1C(=O)OCc1cccc(Oc2ccc(Cl)cc2)c1 (stereo not drawn) [Compound (1) cis-/trans- = 50:50, 3-(4-chlorophenoxy)benzyl 2,2-dimethyl-3-(2,2-dichlorovinyl)cyclopropanecarboxylate]
mortality [1]: not less than 90%
LD50 at 168 h [2]: > 3000 mg/kg
Acute oral toxicity to rat LD50 [3]: > 3000 mg/kg
mortality [4]: not less than 90%
mortality at 0.0001 mg [5]: 100%
mortality at 0.0001 mg ([5]; read-out: Pesticidal effect, tobacco cutworm): 100%
Toxicity to fish TLm, killifish [6]: > 10 ppm
LC50 at 48 h [7]: > 10 µg/mL
mortality at 1 µg/larva [8]: 100%
mortality at 10 µg/larva [8]: 100%
mortality at 0.001 mg ([8]; read-out: Pesticidal effect, rice stem borer): 100%
mortality at 200 ppm [9]: 100%
mortality at 13 ppm [10]: 100%
mortality at 80 ppm [11]: ≥ 90%
mortality at 0.5 µg/female [12]: 100%
mortality at 1 µg/female [12]: 100%
mortality at 0.001 mg ([12]; read-out: Pesticidal effect, housefly): 100%
LC50 at 48 h [13]: > 5 µg/mL
Toxicity to fish TLm, guppy [14]: > 5 ppm
mortality at 80 ppm [15]: ≥ 90%
mortality at 0.01 µg/female [16]: 100%
mortality at 0.1 µg/female [16]: 100%
mortality at 1 µg/female [16]: 100%
LD50 ([16]; read-out: LD50 (median lethal dose), topical, green rice leafhoppers): 1.32 mg/kg
mortality at 10 ng ([16]; read-out: Pesticidal effect, green rice leafhopper): 100%
mortality [17]: not less than 90%
